Experimental data taken from ChEMBL document CHEMBL5370668, “Expected and Unexpected Products from the Biochemical Oxidation of Bacterial Alkylquinolones with CYP4F11” (2023).
Activity calls are given as the source filed them. The calls are words filed in the database; no cut-off is given here.

What was measured:
Staphylococcus aureus = experiment: Antimicrobial activity against Staphylococcus aureus ATCC 12600 assessed as zone of inhibition at 60 ug incubated overnight by agar well diffusion assay; format: functional; details: read-out: DIZ
[1] = system: Staphylococcus epidermidis; experiment: Antimicrobial activity against Staphylococcus epidermidis ATCC 14990 assessed as zone of inhibition at 60 ug incubated overnight by agar well diffusion assay; format: functional; details: read-out: DIZ
Candida albicans = experiment: Antibiofilm activity against Candida albicans assessed as reduction in biofilm formation at 100 uM incubated for 48 hrs by XTT biofilm assay; format: functional, organism-based

Row | SMILES | zone of inhibition at 60 µg/disc (Staphylococcus aureus) [mm] | zone of inhibition at 60 µg/disc [1] [mm] | Activity (Candida albicans)
1 | CCCCCc1cc(O)c2ccccc2n1 | 13 | 14 | Active
2 | O=c1cc(CCCCCCCCCO)[nH]c2ccccc12 | 0 | 0 | inactive
3 | CCCCCCCCCCc1cc(=O)c2ccccc2[nH]1 | 10 | 12 | Active
4 | CCCCCCCCc1cc(=O)c2ccccc2[nH]1 | 11 | 12 | Active
5 | CC(=O)OCCCCCCCCc1cc(=O)c2ccccc2[nH]1 | 9 | 9 | 
6 | O=c1cc(CCCCCCCCCCO)[nH]c2ccccc12 | 0 | 0 | inactive
7 | CCCCCCCCCc1cc(=O)c2ccccc2[nH]1 | 12 | 12 | Active
8 | CC(=O)OCCCCCCCCCc1cc(=O)c2ccccc2[nH]1 | 11 | 11 | 
9 | CC(=O)OCCCCCCCCCCc1cc(=O)c2ccccc2[nH]1 | 10 | 10 | 
10 | CCCCCCCc1cc(=O)c2ccccc2[nH]1 | 13 | 13 | Active
11 | O=c1cc(CCCCCCCCO)[nH]c2ccccc12 | 0 | 0 | 
12 | CC(=O)OCCCCCCCc1cc(=O)c2ccccc2[nH]1 | 8 | 7 | 
13 | CC1(C)S[C@@H]2[C@H](NC(=O)Cc3ccccc3)C(=O)N2[C@H]1C(=O)O [PENICILLIN G] | 41 | 38 | 
14 | O=c1cc(CCCCCCCO)[nH]c2ccccc12 | 0 | 0 | inactive
